Source: paper PMC12079444, “Antagonist Targeting the Species‐Specific Fatty Acid Dehydrogenase/Isomerase FabX for Anti‐H. pylori Infection” (Advanced Science, 2025)
Converted amounts (≈) assume the structure as drawn.

Key:
[1] = system: T1, Helicobacter pylori BHKS 210; test: microbe, parasite or virus in culture; settings: BHKS210, read-out: MIC
T1 construct: BHKS210 (NSH57/empty vector pTM117) wild-type NSH57 with empty vector
Procedure: (§1) The sensitivity of H. pylori strains to various compounds was assessed by determining the MIC and evaluating the growth of the strains on the drug‐containing agar media. The MIC was measured using the broth microdilution assay as described previously.^[ [27] ^] Twofold serial dilutions of the test compounds were prepared using BHI broth supplemented with 10% FCS in 96‐well microtiter plates. Diluted H. pylori cultures, adjusted to a final concentration of 5 × 10^5 CFU mL^−1, were then added to each well. The cultures were incubated for 48–72 h in a microaerobic environment at 37 °C. The MIC was determined by visual inspection. H. pylori strains used in this study were cultured on brain heart infusion (BHI) broth (Oxoid, UK) or Columbia blood agar medium (Oxoid, UK) supplemented with 10% fetal calf serum (FCS). The cultures were incubated at 37 °C for 48–72 h under microaerobic environments in a double‐gas CO2 incubator (Binder, Germany). The wild‐type strains G27 and NSH57 used in this study were kindly provided by Prof. Nina R. Salama from the Fred Hutchinson Cancer Research Center (USA). Three clinical H. pylori strains (BYES129, BY924, and JIGC0009) were isolated from biopsy samples from three patients with gastritis or gastric cancer using standard protocols. Strains BHKS551 (NSH57 IR0203::fabA ΔfabX) and BHKS568 (NSH57 IR0203::fabX ΔfabX) were described previously.^[ [19] ^] The following 15 reference strains of different species were also used: Escherichia coli ATCC 25922, Klebsiella pneumoniae ATCC 35657, Pseudomonas aeruginosa PAO1, Salmonella enterica serovar Typhimurium ATCC 14028, Shigella dysenteriae Sd197, Acinetobacter baumannii ATCC 19606, Proteus mirabilis ATCC 29906, Enterobacter cloacae ATCC 13047, Stenotrophomonas maltophilia ATCC 51331, Bacillus subtilis 168, Enterococcus faecium ATCC 19434, Staphylococcus aureus ATCC 25923, Staphylococcus haemolyticus ATCC 29970, Listeria monocytogenes EGDe, and Morganella morganii ATCC 25830. These non‐Helicobacter bacterial strains were cultured as described previously.^[ [25] ^] We evaluated the antibacterial activities of selected compounds (IC 50 < 1 × 10^−6 M) against several H. pylori strains (Table S3∖, Supporting Information), particularly against strains BHKS551 and BHKS211 (the FabX overexpressed strain, hereinafter referred to as FabX^OE) to validate the on‐target effect in vivo. Note that FabX is overproduced 3.32‐fold in strain BHKS211 compared to the control strain BHKS210 carrying the empty vector (Figure S3, Supporting Information). […] This could be due to the fact that the carboxyl group of 8j readily deprotonates and acquires negative charge at physiological pH, which reduces its lipophilicity and prevents it from permeating the bacterial cell membrane. To address this issue, we employed a prodrug strategy and synthesized esters from 8j by attaching it to lipophilic alcohols (8p‐8u) or a lipophilic cation 6‐hydroxyhexyltriphenylphosphonium bromide (8v) (Figure 3). […] Compounds 8p‐8s were synthesized as shown in Scheme 1, while compounds 8t‐8v were synthesized as described in Scheme 3 . 8q was hydrolyzed with NaOH to yield 8j, which was subsequently reacted with various alcohols by Steglich esterification to produce compounds 8t‐8v.

Helicobacter pylori G27 = system: T2, Helicobacter pylori G27; test: microbe, parasite or virus in culture; settings: G27, read-out: MIC
T2 construct: G27
Procedure: as §1

[2] = system: T3, Helicobacter pylori BHKS 568; test: microbe, parasite or virus in culture; settings: BHKS568, read-out: MIC
T3 construct: BHKS568 (NSH57 IR0203::fabX ΔfabX) native fabX relocated to IR0203
Procedure: as §1

[3] = system: T4, Helicobacter pylori Hp129; test: microbe, parasite or virus in culture; settings: HP129, read-out: MIC
T4 construct: Hp129
Procedure: as §1

FabX [4] = biological target: T5, FabX (Helicobacter pylori, UniProt O25465); test: biochemical; set-up: FabX inhibition in multienzymatic cascade coupled to FabI, NADH consumption read-out; settings: read-out: % inhibition
T5 construct: gene HP_0773; recombinant from pQE2 vector in E. coli BL21(DE3) Rosetta, Ni-NTA, HiTrap-SP, Superdex75; FMN and [4Fe-4S] cofactors
T5 sequence (O25465 1-363): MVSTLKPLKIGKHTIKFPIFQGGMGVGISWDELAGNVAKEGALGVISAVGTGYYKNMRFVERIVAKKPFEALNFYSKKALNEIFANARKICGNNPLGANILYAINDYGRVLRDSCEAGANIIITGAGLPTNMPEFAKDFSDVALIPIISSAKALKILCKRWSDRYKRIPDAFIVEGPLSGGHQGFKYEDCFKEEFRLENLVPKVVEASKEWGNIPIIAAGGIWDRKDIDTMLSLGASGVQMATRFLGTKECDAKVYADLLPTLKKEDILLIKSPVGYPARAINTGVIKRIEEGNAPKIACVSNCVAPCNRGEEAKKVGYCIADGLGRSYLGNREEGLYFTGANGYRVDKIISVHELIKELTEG
Description: To discover small molecule inhibitors targeting FabX, we performed protein thermal shift assay (PTSA) based high‐throughput screening against an in‐house chemical library of 11000 small molecule compounds, and established a multienzymatic cascade reaction system by incorporating the enoyl acyl carrier protein reductase FabI from H. pylori into the hit validation system, where FabI catalyzes the reduction of FabX catalytic product enoyl‐ACP in the fourth step of the elongation cycle, accompanying the elimination of NADH (Figure 2A,B). […] The subcloning, expression, and purification of FabX, FabI, and ACP from H. pylori, FabK from S. pneumoniae, and FabA from E. coli were described previously.^[ [19] ^] Briefly, fabX, fabI, fabK, and fabA genes were subcloned to pQE2 vector, while the Acp gene was subcloned to pET32a vector, respectively. The proteins were expressed in BL21(DE3) Rosetta cells, purified by using Ni‐NTA affinity column, HiTrap‐SP column, GE HiLoad 16/600 Superdex75 prep grade gel‐filtration column. The peaks from the gel‐filtration column were further pooled, concentrated, and the final concentration of the proteins was quantified by the Bradford reagent purchased from Bio‐Rad.

FabX [5] = biological target: T5, FabX; test: isothermal titration calorimetry; type: binding
FabX [6] = biological target: T5, FabX; test: FabX-FabI coupled assay, NADH absorbance […] nm; type: biochemical
FabX [7] = biological target: T5, FabX; test: FabX-FabI coupled assay, NADH absorbance […] nm; type: biochemical; settings: read-out: FabX enzymatic activity / 10 × 10^-6 M [%]
FabX [8] = biological target: T5, FabX; test: X-ray crystal structure, […] Å; type: binding; settings: bound cofactor in the complex with FBX-1991

SMILES | MIC [1] | MIC (Helicobacter pylori G27) | MIC [2] | MIC [3] | inhibition at 1 µM (FabX [4]) | inhibition at 10 µM (FabX [4]) | Kd (FabX [5]) | IC50 (FabX [6]) | inhibition at 10 µM (FabX [7]) | X-ray crystal structure, 2.00 Å (FabX [8])
O=C(O)c1cccc(NS(=O)(=O)c2cccnc2Nc2ccc(Cl)cc2Cl)c1 [8j, FBX-1872] | > 128 µg/mL | > 64 µg/mL | > 64 µg/mL | > 64 µg/mL | 65% | 100% | 435 ± 46 nM | 437 ± 42 nM | – | –
CC(C)(C)OC(=O)c1cccc(NS(=O)(=O)c2cccnc2Nc2ccc(Cl)cc2Cl)c1 [8s] | 32 µg/mL (≈ 64.7 µM) | 64 µg/mL (≈ 129 µM) | 32 µg/mL (≈ 64.7 µM) | 32 µg/mL (≈ 64.7 µM) | – | – | – | – | 10% | –
Cc1cc2nc3c(=O)[nH]c(=O)nc-3n(C[C@H](O)[C@H](O)[C@H](O)COP(=O)(O)O)c2cc1C [FMN] | – | – | – | – | – | – | – | – | – | binds in the region between the FMN cofactor and the catalytic tunnel of FabX
